We go through two compounds from US11691971B2, “Naphthyridinone compounds as JAK2 V617F inhibitors” (Incyte Corporation, priority 2020, dated 2023).

Each structure is given as a SMILES string. pIC50: −log10 of the molar value. Counter-ions that a name gives are not always drawn.

Test [1] has as its target catalytic domain (JH1, amino acids 826-1132) of human JAK2 (Homo sapiens (Human), UniProt O60674). As to the kind of experiment: JAK2 LanthaScreen JH1 Binding Assay. As to conditions: JAK2 JH1 1.5 nM, 50 nM tracer, 2 hours at 25° C.; read-out: JH1BIND IC50. How it is done: Example A. JAK2 LanthaScreen JH1 Binding Assay
(§1) JAK2 JH1 binding assay utilizes catalytic domain (JH1, amino acids 826-1132) of human JAK2 expressed as N-terminal FLAG-tagged, biotinylated protein in a baculovirus expression system (Carna Biosciences, Product #08-445-20N). The assay was conducted in black 384-well polystyrene plates in a final reaction volume of 20 μL. JAK2 JH1 (1.5 nM) was incubated with compounds (100 nL serially diluted in DMSO) in the presence of 50 nM fluorescent JAK2-JH1 tracer and 0.5 nM Streptavidin-Tb cryptate (Cisbio Part #610SATLB) in assay buffer (50 mM Tris, pH=7.5, 10 mM MgCl2, 0.01% Brij-35, 0.1% BSA, 1 mM EGTA, 5% Glycerol and 5 mM DTT). Non-specific binding was accessed in the presence of 2 mM ATP. After incubation for 2 hours at 25° C., LanthaScreen signals were read on a PHERAstar FS plate reader (BMG LABTECH). Data was analyzed with IDBS XLfit and GraphPad Prism 5.0 software using a four parameter dose response curve to determine IC50 for each compound.

The target of test [2] is pseudo-kinase domain (JH2) of human Wild Type JAK2 (Homo sapiens (Human), UniProt O60674, F794H/W659A/W777A). As to the kind of experiment: JAK2 LanthaScreen JH2-WT Binding Assay. As to conditions: JAK2 JH2-WT 0.145 nM, 50 nM tracer, 1 hour at 25° C.; read-out: JH2BIND_WT IC50. Here is the method:
Example B. JAK2 LanthaScreen JH2-WT Binding Assay
as §1, with “The” for “JAK2 JH1 binding assay utilizes catalytic domain (JH1, amino acids 826-1132) of human JAK2 expressed as N-terminal FLAG-tagged, biotinylated protein in a baculovirus expression system (Carna Biosciences, Product #08-445-20N). The”, “JH2-WT (0.145” for “JH1 (1.5”, “Fluorescent JAK2-JH2 Tracer (MedChem Express Catalog #HY-102055)” for “fluorescent JAK2-JH1 tracer”, “0.25” for “0.5”, “1 hour” for “2 hours”
A general note: TR-FRET usually uses a lanthanide donor and a delayed reading to cut background.

For test [3], the target named is pseudo-kinase domain (JH2) of human V617F mutant JAK2 (Homo sapiens (Human), UniProt O60674, F794H/V617F/W659A/W777A). As to the kind of experiment: JAK2 LanthaScreen JH2-V617F Binding Assay. To be noted: JAK2 JH2-V617F 0.26 nM, 50 nM tracer, 1 hour at 25° C.; read-out: JH2BINDING_V617F IC50. How it is done:
The assay was conducted in black 384-well polystyrene plates in a final reaction volume of 20 μL. […] Non-specific binding was accessed in the presence of 2 mM ATP. After incubation for 1 hour at 25° C., LanthaScreen signals were read on a PHERAstar FS plate reader (BMG LABTECH). Data was analyzed with IDBS XLfit and GraphPad Prism 5.0 software using a four parameter dose response curve to determine IC50 for each compound.

The target in test [4] is catalytic domain (JH1, amino acids 808-1132) of human JAK2 (Homo sapiens (Human), UniProt O60674). Briefly: JAK2 HTRF Enzyme Activity Assay. It counts as biochemical. To be noted: ATP 30 μM, 60 minutes at 25° C.; read-out: ENZ 30UMATP IC50. How it is done: Example D. JAK2 HTRF Enzyme Activity Assay
JAK2 enzyme activity assays utilize catalytic domain (JH1, amino acids 808-1132) of human JAK2 expressed as N-terminal His-tagged protein in a baculovirus expression system (BPS Bioscience, Catalog #40450). The assays was conducted in black 384-well polystyrene plates in a final reaction volume of 20 μL. JAK2 (0.015 nM) was incubated with compounds (100 nL serially diluted in DMSO) in the presence of ATP (30 μM or 1 mM) and 500 nM Biotin-labeled […] (SEQ ID NO.: 1) peptide (BioSource International, custom synthesis) in assay buffer (50 mM Tris, pH=7.5, 10 mM MgCl2, 0.01% Brij-35, 0.1% BSA, 1 mM EGTA, 5% Glycerol and 5 mM DTT) for 60 minutes at 25° C. The reactions were stopped by the addition of 10 μL of detection buffer (50 mM Tris, pH 7.8, 0.5 mg/mL BSA, 150 mM NaCl), supplemented with EDTA, LANCE Eu-W1024 anti-phosphotyrosine (PY20), (PerkinElmer, Catalog #AD0067) and Streptavidin SureLight APC (PerkinElmer Catalog #CR130-100), for a final concentration of 15 mM, 1.5 nM and 75 nM, respectively. HTRF signals were read after 30 minutes incubation at room temperature on a PHERAstar FS plate reader (BMG LABTECH). Data was analyzed with IDBS XLfit and GraphPad Prism 5.0 software using a four parameter dose response curve to determine IC50 for each compound.

Sequence of pseudo-kinase domain (JH2) of human V617F mutant JAK2 (O60674 536-812 V617F/W659A/W777A/F794H): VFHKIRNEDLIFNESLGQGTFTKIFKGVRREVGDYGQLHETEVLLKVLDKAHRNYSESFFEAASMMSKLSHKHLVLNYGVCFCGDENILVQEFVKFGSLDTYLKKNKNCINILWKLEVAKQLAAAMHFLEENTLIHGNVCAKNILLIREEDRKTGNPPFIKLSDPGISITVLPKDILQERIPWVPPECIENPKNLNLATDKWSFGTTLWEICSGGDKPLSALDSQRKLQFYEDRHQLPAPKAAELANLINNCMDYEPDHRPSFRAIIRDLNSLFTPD
Sequence of catalytic domain (JH1, amino acids 808-1132) of human JAK2 (O60674 808-1132): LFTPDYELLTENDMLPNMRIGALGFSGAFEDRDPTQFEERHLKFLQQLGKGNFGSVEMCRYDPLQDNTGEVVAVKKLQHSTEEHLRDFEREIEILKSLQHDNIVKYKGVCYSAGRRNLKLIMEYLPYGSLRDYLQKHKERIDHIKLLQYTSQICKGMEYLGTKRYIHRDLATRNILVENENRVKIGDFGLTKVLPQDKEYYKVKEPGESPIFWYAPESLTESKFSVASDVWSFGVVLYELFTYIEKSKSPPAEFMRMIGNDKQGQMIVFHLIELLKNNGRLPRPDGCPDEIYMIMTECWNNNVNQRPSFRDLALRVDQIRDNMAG
Sequence of pseudo-kinase domain (JH2) of human Wild Type JAK2 (O60674 536-812 W659A/W777A/F794H): as the sequence (O60674 536-812 V617F/W659A/W777A/F794H) above, with F82V counted along it
Sequence of catalytic domain (JH1, amino acids 826-1132) of human JAK2 (O60674 826-1132): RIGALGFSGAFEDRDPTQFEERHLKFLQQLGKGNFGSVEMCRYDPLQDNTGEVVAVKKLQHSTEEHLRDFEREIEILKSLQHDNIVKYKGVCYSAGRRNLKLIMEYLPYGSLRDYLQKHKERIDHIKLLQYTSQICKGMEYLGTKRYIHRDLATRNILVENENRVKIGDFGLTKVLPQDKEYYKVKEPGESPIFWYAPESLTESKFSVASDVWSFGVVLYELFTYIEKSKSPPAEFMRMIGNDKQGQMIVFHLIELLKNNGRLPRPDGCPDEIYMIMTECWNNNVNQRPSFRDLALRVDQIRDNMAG

Broadly, the pIC50 is the negative decadic logarithm of the IC50, by convention in mol/L. With `COc1c(Nc2cc(NC(=O)C3CC3)nc3cc[nH]c(=O)c23)cccc1-c1cnn(C2CCOCC2)c1` [Example 5, N-(4-((2-Methoxy-3-(1-(tetrahydro-2H-pyran-4-yl)-1H-pyrazol-4-yl)phenyl)amino)-5-oxo-5,6-dihydro-1,6-naphthyridin-2-yl)cyclopropanecarboxamide Trifluoroacetic Acid Salt], the pIC50 in test [1] was under 5.00; in test [2], at least 7.00; in test [3], at least 7.00; in test [4], under 5.00.

As for `CCn1ccc2cccc(Nc3cc(NC(=O)C4CC4)nc4cc[nH]c(=O)c34)c21` [Example 9, N-(4-((1-Ethyl-1H-indol-7-yl)amino)-5-oxo-5,6-dihydro-1,6-naphthyridin-2-yl)cyclopropanecarboxamide Trifluoroacetic Acid Salt], the pIC50 in test [1] was under 5.00; in test [2] it was 5.00 to 6.00; in test [3], 5.00 to 6.00; in test [4] it was under 5.00.
